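Grown in 96-well plates, cells were treated for 48 hours with each compound at five concentrations. Insufficient inhibition: endpoint recorded as highest concentration tested. GI50 is the concentration that inhibits growth by half. At the TGI there is no net growth.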
Assays:
Assay in all cases: NCI tumour cell line growth inhibition, 48 h
SF-268 CNS = system: SF-268 CNS
COLO 205 colon = system: COLO 205 colon
A498 renal = system: A498 renal
DLD-1 colon = system: DLD-1 colon
U251 CNS = system: U251 CNS
OVCAR-3 ovarian = system: OVCAR-3 ovarian
LXFL 529 NSCLC = system: LXFL 529 NSCLC
UO-31 renal = system: UO-31 renal
SN12C renal = system: SN12C renal
DU-145 prostate = system: DU-145 prostate

SMILES | TGI (SF-268 CNS) | TGI (COLO 205 colon) | TGI (A498 renal) | TGI (DLD-1 colon) | TGI (U251 CNS) | TGI (OVCAR-3 ovarian) | TGI (LXFL 529 NSCLC) | TGI (UO-31 renal) | TGI (SN12C renal) | TGI (DU-145 prostate) | GI50 (SF-268 CNS) | GI50 (COLO 205 colon) | GI50 (A498 renal) | GI50 (DLD-1 colon) | GI50 (U251 CNS) | GI50 (OVCAR-3 ovarian) | GI50 (LXFL 529 NSCLC) | GI50 (UO-31 renal) | GI50 (SN12C renal)
Cc1cc(Br)ccc1N=NC1C(=O)ON=C1c1ccccc1 (stereo not given) | > 100 µM | 29.6 µM | > 100 µM | > 100 µM | > 100 µM | > 100 µM | > 100 µM | > 100 µM | > 100 µM |  |  |  |  |  |  |  |  |  | 
CS(=O)c1cc(=O)c2ccccc2s1 (stereo not given) | 24.5 µM | 4.65 µM | 25.4 µM | 5.6 µM | 22.1 µM | 4.47 µM | 2.9 µM | 22.3 µM | 13.2 µM | 34.3 µM |  |  |  |  |  |  |  |  | 
CC(=O)Nc1ccc(/C=C/C(=O)c2sc(-n3nc(-c4ccccc4)cc3-c3ccccc3)nc2C)cc1 | > 100 µM | > 100 µM | > 100 µM | > 100 µM | > 100 µM | > 100 µM | > 100 µM | > 100 µM | > 100 µM |  | > 100 µM | > 100 µM | > 100 µM | > 100 µM | > 100 µM | > 100 µM | > 100 µM | > 100 µM | > 100 µM
O=C1N(c2ccccc2)C2(O)C(=O)c3ccccc3C2(O)N1c1ccccc1 (stereo not given) | > 100 µM | > 100 µM | > 100 µM | > 100 µM | > 100 µM | > 100 µM | > 100 µM | > 100 µM | > 100 µM |  |  |  |  |  |  |  |  |  | 
O=c1ccn([C@@H]2C[C@H](CO)CS(=O)C2)c(=O)[nH]1 (stereo not given in full) | > 100 µM | > 100 µM | > 100 µM | > 100 µM | > 100 µM | > 100 µM | > 100 µM | > 100 µM | > 100 µM |  |  |  |  |  |  |  |  |  | 

From PubChem BioAssay (NCI)
